Data on 3 compounds can be found in patent US20250250258A1, “CRYSTAL FORM OF FGFR4 SELECTIVE INHIBITOR COMPOUND, AND PREPARATION METHOD THEREFOR AND USE THEREOF” (ZHEJIANG HISUN PHARMACEUTICAL CO., LTD., priority 2022, published 2025).

pIC50: −log10 of the molar value. Like-named read-outs stand apart in the source and are kept apart here.

Series [1] deals with hepatocellular carcinoma cells Hep3B. Conditions: reported in background for PCT/CN2017/085135 compound, read-out: inhibitory activity against hepatocellular carcinoma cells Hep3B, IC50; cited from earlier work.
Series [2] in a line: Comparative solubility assay in water. It counts as physicochemical.
Series [3] in a line: Stability test (25° C., 40° C., light irradiation of 4500 LX, 30 days). It counts as physicochemical. The method, then: The compound represented by formula (I) of the present disclosure was subjected to HPLC for purity detection under the following conditions. The used chromatographic column was Waters, XBridge C18 4.6×150 mm, 3.5 μm; the mobile phase A consisted of buffer solution: acetonitrile=70:30, the mobile phase B consisted of buffer solution: acetonitrile=[…], the buffer solution was prepared by weighing 9.13 g of dipotassium hydrogen phosphate trihydrate in 2,000 mL of pure water, and adjusting pH using phosphoric acid to 8.0; the detection wavelength was 234 nm; the flow rate was 1.0 mL/min; the column temperature was 25° C.; and the injection volume was 10 μL.

A short description of series [4]: Pharmacokinetic experiment in ICR mice, single gavage. In kind it is in vivo. Conditions: 75 mg·kg −1, single gavage. Here is the method:
Before and 0.25, 0.5, 1, 2, 4, 8, 10, 12 and 24 hours after administration, 0.15 mL blood was collected from fundus venous plexus and placed into anticoagulant tubes containing EDTA-K2.

Where [5] appears, read: stability at 25° C., day 0, HPLC.
Where [6] appears, read: stability at 25° C., day 10, HPLC.
Where [7] appears, read: stability at 25° C., day 30, HPLC.
[8] abbreviates: stability at 40° C., day 0, HPLC.
[9] abbreviates: stability at 40° C., day 10, HPLC.
Setting [10] is: stability at 40° C., day 30, HPLC.
Where [11] appears, read: stability under the light irradiation of 4500LX, day 0, HPLC.
The mark [12] stands for this setting: stability under the light irradiation of 4500LX, day 10, HPLC.
Where [13] appears, read: stability under the light irradiation of 4500LX, day 30, HPLC.

Usually pIC50 stands for −log10 of the IC50, conventionally taken in molar units. As for `C=CC(=O)Nc1cc(N2CCN(CC)C3(CC3)C2)ccc1Nc1cc(N(C)C(=O)Nc2c(Cl)c(OC)cc(OC)c2Cl)ncn1` [N-(2-((6-(3-(2,6-dichloro-3,5-dimethoxyphenyl)-1-methylureido)pyrimidin-4-yl)amino)-5-(4-ethyl-4,7-diazaspiro[2.5]octane-7-yl)phenyl)acrylamide], the pIC50 in series [1] is 7.72. The “solubility in water at 25° C.” value in series [2] was “insoluble”.

Usually solubility stands for how much of the substance goes into solution per volume. Higher therefore signals much dissolved substance. One may read the Tmax as the time at which the peak concentration occurs. Turning to `C=CC(=O)Nc1cc(N2CCN(CC)C3(CC3)C2)ccc1Nc1cc(N(C)C(=O)Nc2c(Cl)c(OC)cc(OC)c2Cl)ncn1.CCS(=O)(=O)O.CCS(=O)(=O)O` [amorphous form, N-(2-((6-(3-(2,6-dichloro-3,5-dimethoxyphenyl)-1-methylureido)pyrimidin-4-yl)amino)-5-(4-ethyl-4,7-diazaspiro[2.5]octan-7-yl)phenyl)acrylamide diethanesulfonate salt], the “purity (%)” value in series [3] (setting [5]) is listed as 98.80%; in series [3] (setting [6]), 96.60%; in series [3] (setting [7]), 91.60%; in series [3] (setting [8]), 98.80%; in series [3] (setting [9]), 93.40%; in series [3] (setting [10]), 87.60%. For the same compound, the “purity (%)” value in series [3] (setting [11]) was found to be 98.80%; in series [3] (setting [12]), 86.20%; in series [3] (setting [13]), 73.70%. The compound further gave a solubility in series [2] (25 °C, thermodynamic from solid) of 115 mg/mL. For the same compound, the Tmax in series [4] (ICR, mouse, in vivo, po, 75 mg/kg, read-out: Tmax) stood at 30 min.

The Cmax is the maximum level reached in the sampled fluid or tissue. One may read the half-life as the time in which the quantity being followed falls by half. A higher half-life goes with slow loss. In general, AUC(0-t) refers to the area under the concentration-time curve up to a stated or last time point. High values mean high exposure, low ones low exposure. In the case of `C=CC(=O)Nc1cc(N2CCN(CC)C3(CC3)C2)ccc1Nc1cc(N(C)C(=O)Nc2c(Cl)c(OC)cc(OC)c2Cl)ncn1.CCS(=O)(=O)O.CCS(=O)(=O)O` [crystal form A, N-(2-((6-(3-(2,6-dichloro-3,5-dimethoxyphenyl)-1-methylureido)pyrimidin-4-yl)amino)-5-(4-ethyl-4,7-diazaspiro[2.5]octan-7-yl)phenyl)acrylamide diethanesulfonate salt], the “purity (%)” value amounted to 99.64% in series [3] (setting [5]); 99.63% in series [3] (setting [6]); 99.62% in series [3] (setting [7]); 99.64% in series [3] (setting [8]); 99.61% in series [3] (setting [9]); 99.60% in series [3] (setting [10]). The “purity (%)” value in series [3] (setting [11]) was determined as 99.64%; in series [3] (setting [12]), 99.61%; in series [3] (setting [13]) it was 99.54%. The “solubility in water at 25° C.” value in series [2] (listed as the crystal form A of the compound represented by formula (I)) is 100 mg/mL. Further, in series [4], the Tmax came out at 36.6 min. In series [4] (mouse, in vivo, po), this compound registered a Cmax of 3.98 µg/mL. The same compound showed a half-life in series [4] (mouse, in vivo, po) of 91.2 min. The compound further showed an AUC(0-t) in series [4] (mouse, in vivo, po, 0-24 h sampling) of 9.34 µg·h/mL.
